Experimental findings from ChEMBL document CHEMBL5137039, “Therapeutic potentials and structure-activity relationship of 1,3-benzodioxole N-carbamothioyl carboxamide derivatives as selective and potent antagonists of P2X4 and P2X7 receptors” (Eur J Med Chem, 2022) are described below.

The target in data set [1] is T1, P2X purinoceptor 7 (Homo sapiens, UniProt Q99572).
T1 sequence (Q99572 whole entry): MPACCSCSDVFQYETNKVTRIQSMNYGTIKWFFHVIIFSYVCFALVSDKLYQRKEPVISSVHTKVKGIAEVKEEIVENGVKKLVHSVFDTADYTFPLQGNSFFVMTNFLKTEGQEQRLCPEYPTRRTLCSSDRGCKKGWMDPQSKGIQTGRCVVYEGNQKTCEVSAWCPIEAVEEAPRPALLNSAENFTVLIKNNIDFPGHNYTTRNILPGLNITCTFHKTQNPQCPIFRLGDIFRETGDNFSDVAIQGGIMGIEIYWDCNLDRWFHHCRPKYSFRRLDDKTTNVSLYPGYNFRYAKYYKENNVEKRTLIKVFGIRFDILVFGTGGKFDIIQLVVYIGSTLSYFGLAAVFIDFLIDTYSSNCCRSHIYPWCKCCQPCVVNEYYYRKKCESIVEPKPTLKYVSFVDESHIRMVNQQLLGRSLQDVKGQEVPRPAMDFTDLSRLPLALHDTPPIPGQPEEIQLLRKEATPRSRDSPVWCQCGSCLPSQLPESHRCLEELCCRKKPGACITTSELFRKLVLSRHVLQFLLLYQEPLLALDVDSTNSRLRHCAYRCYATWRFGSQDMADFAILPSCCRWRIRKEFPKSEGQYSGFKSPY
The experiment in a line: Antagonist activity against human P2X7R stably transfected in human 1321N1 cells incubated for 30 mins by Fura-2 AM staining based calcium influx assay. The data set is classed as cell-based.

Data set [2] relates to HEK293. The data set is described as follows: Cytotoxicity against HEK293 cells assessed as reduction in cell viability at 50 uM after 24 hrs by MTT assay relative to control. Type of data set: toxicity, cell-based. The conditions noted are these: human, hek293, 24 h. (In general: Formazan colour is commonly taken as a measure of viable cells.)
Data set [3] concerns HeLa. The experiment in a line: Cytotoxicity against human HeLa cells assessed as reduction in cell viability at 50 uM after 24 hrs by MTT assay relative to control. Type of data set: toxicity, cell-based.
For data set [4], the target named is T2, P2X purinoceptor 7 (Homo sapiens) (UniProt Q99572).
T2 sequence (whole entry): T1 sequence (Q99572 whole entry)
The data set is described as follows: Antagonist activity against human P2X7R stably transfected in human 1321N1 cells assessed as BzATP Emax at 0.05 uM incubated for 30 mins by Fura-2 AM staining based calcium influx assay relative to control. Type of data set: cell-based. The settings on record: filed as antagonist.

Data set [5] is described as follows: Cytotoxicity against human 1321N1 cells assessed as reduction in cell viability at 50 uM after 24 hrs by MTT assay relative to control. Type of data set: toxicity, cell-based. The conditions noted are these: 1321n1, 24 h.
Data set [6] has as its target T2, P2X purinoceptor 7 (Homo sapiens). The experiment in a line: Antagonist activity against human P2X7R stably transfected in human 1321N1 cells assessed as BzATP Emax at 0.1 uM incubated for 30 mins by Fura-2 AM staining based calcium influx assay relative to control. Type of data set: cell-based. The settings on record: filed as antagonist.
Data set [7] deals with T1, P2X purinoceptor 7. The data set is described as follows: Antagonist activity against human P2X7R stably transfected in human 1321N1 cells assessed as reduction in BzATP-induced activity incubated for 5 to 10 mins by EtBr staining based fluorescence assay. Type of data set: cell-based.
Data set [8] has as its target T3, P2X purinoceptor 2 (Homo sapiens) (UniProt Q9UBL9).
T3 sequence (whole entry): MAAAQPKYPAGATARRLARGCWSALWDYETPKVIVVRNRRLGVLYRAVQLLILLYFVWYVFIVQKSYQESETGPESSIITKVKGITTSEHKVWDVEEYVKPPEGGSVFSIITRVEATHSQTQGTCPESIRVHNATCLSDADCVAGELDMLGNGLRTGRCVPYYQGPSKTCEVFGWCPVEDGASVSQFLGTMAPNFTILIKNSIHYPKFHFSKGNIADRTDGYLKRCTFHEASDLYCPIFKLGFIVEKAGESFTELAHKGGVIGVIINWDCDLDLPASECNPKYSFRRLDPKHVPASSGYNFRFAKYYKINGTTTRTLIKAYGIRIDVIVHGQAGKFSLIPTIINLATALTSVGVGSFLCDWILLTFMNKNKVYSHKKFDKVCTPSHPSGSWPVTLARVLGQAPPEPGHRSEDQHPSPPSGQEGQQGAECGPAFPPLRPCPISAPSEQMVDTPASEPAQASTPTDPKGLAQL
The data set is described as follows: Antagonist activity against human P2X2R stably transfected in human 1321N1 cells at 50 uM incubated for 30 mins by Fura-2 AM staining based calcium influx assay relative to control. The data set is classed as cell-based. Also on record: scale not given: the % may be the effect or the level left. The conditions noted are these: filed as antagonist.

Data set [9] has as its target P2X purinoceptor 5 (Homo sapiens, UniProt Q93086). The data set is described as follows: Antagonist activity against human P2X5R stably transfected in human 1321N1 cells at 50 uM incubated for 30 mins by Fura-2 AM staining based calcium influx assay relative to control. The data set is classed as cell-based. Also on record: scale not given: the % may be the effect or the level left.

In data set [10] the target is T2, P2X purinoceptor 7 (Homo sapiens). The experiment in a line: Antagonist activity against human P2X7R stably transfected in human 1321N1 cells assessed as BzATP Emax at 0.2 uM incubated for 30 mins by Fura-2 AM staining based calcium influx assay relative to control. The data set is classed as cell-based.
For data set [11], the target named is T4, P2X purinoceptor 4 (Homo sapiens, UniProt Q99571).
T4 sequence (Q99571 whole entry): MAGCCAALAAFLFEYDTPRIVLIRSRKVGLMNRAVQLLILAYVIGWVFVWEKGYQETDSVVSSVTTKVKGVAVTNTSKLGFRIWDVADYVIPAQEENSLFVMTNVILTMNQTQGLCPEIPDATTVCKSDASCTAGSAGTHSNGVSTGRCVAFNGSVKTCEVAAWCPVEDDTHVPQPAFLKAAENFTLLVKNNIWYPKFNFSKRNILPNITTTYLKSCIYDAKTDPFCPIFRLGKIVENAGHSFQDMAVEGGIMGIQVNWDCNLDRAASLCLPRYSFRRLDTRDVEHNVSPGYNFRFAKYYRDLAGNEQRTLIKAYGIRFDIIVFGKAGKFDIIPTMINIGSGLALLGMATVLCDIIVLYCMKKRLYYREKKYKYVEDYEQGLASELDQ
The data set is described as follows: Antagonist activity against human P2X4R stably transfected in human 1321N1 cells incubated for 30 mins by Fura-2 AM staining based calcium influx assay. Type of data set: cell-based.

Sequence of P2X purinoceptor 5 (Q93086 whole entry): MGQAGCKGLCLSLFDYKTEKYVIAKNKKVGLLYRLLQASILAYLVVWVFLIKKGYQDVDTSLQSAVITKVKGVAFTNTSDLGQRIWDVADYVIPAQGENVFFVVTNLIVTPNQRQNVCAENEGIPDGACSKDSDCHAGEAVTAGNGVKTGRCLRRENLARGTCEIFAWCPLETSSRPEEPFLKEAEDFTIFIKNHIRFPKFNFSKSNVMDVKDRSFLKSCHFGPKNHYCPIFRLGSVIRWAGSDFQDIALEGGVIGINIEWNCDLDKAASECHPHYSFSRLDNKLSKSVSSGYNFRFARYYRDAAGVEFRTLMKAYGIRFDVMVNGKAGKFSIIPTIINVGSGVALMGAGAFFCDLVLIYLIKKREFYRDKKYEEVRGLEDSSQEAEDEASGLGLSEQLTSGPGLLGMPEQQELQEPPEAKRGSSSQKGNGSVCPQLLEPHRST

In the case of `O=C(NC(=S)Nc1cccc2cccnc12)c1ccc2c(c1)OCO2`, the results for the IC50 in data set [1], in [7] and in data set [11] were 18 nM, 30 nM and 908 nM, respectively. Moreover, the Activity worked out at 1.42% in data set [2]; 5.45% in data set [3]; 3.04% in data set [5]; 41% in data set [8]; 29% in data set [9]. Also, the Emax in data set [4] is 83%; in [6] it was 68%; in data set [10], 29%.

As a reminder, the IC50 is the concentration that gives 50% inhibition. The term Emax denotes the greatest response seen or fitted, relative to the assay's reference.
